We go through 18 compounds from US11427596B2, “Metal-free solvent-free synthesis of fused-pyrido heterocycles and biomedical applications” (Indian Institute of Technology Indore, priority 2019, dated 2022).

Molecules are shown by their SMILES. “And” between values parts separate entries of the source, which are not always exact repeats. Equal values may be shown once.

Broadly, the melting point is the temperature, or range, at which the solid turns liquid. For orientation: IC50 means the concentration needed to halve the response being measured.

For data set [1], the system named is HeLa cells. As to the kind of experiment: Live-cell confocal imaging of cell uptake. In kind it is cell-based, human. The note with it: 3 h incubation, confocal microscopy. The protocol:
FIG. b 17 illustrates confocal microscopic studies (λex=405 nm; collection range=420-470 nm) for uptake of 18ac in HeLa cells, according to the embodiments as disclosed herein. • a) Confocal fluorescent image of HeLa cells after 3 h incubation with 10 μM concentration of 18ac (20× magnification, 2× zoom); • b) DIC image of HeLa cells • c) Overlay of (a) and (b) • d) Confocal image of HeLa cells after 3 h incubation with 100 nM concentration of 18ac (20× magnification, 2× zoom) • e) DIC image of HeLa cells • f) Overlay of (d) and (e).
To further evaluate cell uptake of the novel carbolines, live-cell imaging experiment was performed. HeLa cells were plated in a 4-well confocal dish (cell count=10^4 cells per well) and incubated for 48 h at 37° C. under 5% CO2. After 3 h of incubation with 18ac (10 nM, 100 nM, 1 μM, 10 μM, and 100 μM), cellular uptake and distribution were monitored by using confocal microscopy (λex=405 nm; collection range=420-470 nm).

Data set [2] has as its system MCF-7. As to the kind of experiment: Crystal violet cytotoxicity assay, MCF-7. In kind it is cell-based. The note with it: Homo sapiens, MCF7, 48 h incubation, triplicate. The protocol: (§1) FIG. 16 illustrates dose vs response curves of carbolines 18ac, 18bc, 18da and 18fa in HeLa, MCF-7, HEK293, A431 and A549 cell lines for 48 h incubation. IC50 values were determined by standard crystal violet assay in triplicate, according to the embodiments as disclosed herein. In vitro studies: The cytotoxicity of novel carboline derivatives 18ac, 18bc, 18da and 18fa were tested through standard crystal violet assay on human malignant cell lines such as HeLa, MCF-7, HEK293, A431 and A549. Cells were plated in a 96 well plate (1800 cells per well) and incubated for 48 h at 37° C. under 5% CO2. At 50% confluency, cells were incubated with a series of concentrations (0.1 μM, 0.25 μM, 0.5 μM, 1 μM, 2.5 μM, 5 μM, 10 μM, 25 μM, 50 μM and 100 μM) of the carbolines 18ac, 18bc, 18da and 18fa, respectively, for 48 h.
(§2) Procedure for cytotoxicity assay of carbolines in cancer cell lines: For this purpose, carbolines 18ac, 18bc, 18da and 18fa were subjected to a standard cell viability study (Crystal Violet assay) for examining anticancer activity against various human cancer cell lines such as HeLa, MCF-7, HEK293, A431 and A549. Crystal Violet is a triarylmethane dye which stains adhered cells by binding to the […]. The amount of Crystal Violet stain in the assay is directly proportional to the live cell biomass adhered on the plate after repeated washing. The above human cancer cell lines were plated in a 96-well tissue culture plate (1800 cells/well,) and incubated for 48 h in RPMI 1640 medium (volume≥100 μL/well), supplemented with 10% heat inactivated fetal bovine serum (HIFBS) and 1% Penicillin-Streptomycin antibiotic at 37° C., 5% CO2. Once the monolayer achieved 50% confluency/well, spent medium was aspirated and replaced with fresh medium≥100 μL/well, supplemented with increasing concentrations of carbolines 18ac, 18bc, 18da and 18fa (0.1 μM, 0.25 μM, 0.5 μM, 1 μM, 2.5 μM, 5 μM, 10 μM, 25 μM, 50 μM and 100 μM), respectively, and incubated for 48 h, at 37° C., 5% CO2. For positive control, 40% DMSO in culture medium was added to three wells and incubated under identical conditions. […] Finally, optical density of each well was measured at 570 nm (OD570) using Synergy H1 multimode plate reader (BioTek Instruments, Inc., Winooski, Vt., USA). The average background OD570 of empty wells was measured and subtracted from OD570/well on the plate. The percentage of treated, viable cells (attached) was determined and a dose vs response curve was plotted as semi-log[conc] vs percentage of normalized cell viability using GraphPad Prism v. […] The half maximal inhibitory concentration (IC50) was calculated and shown in Table 3 for carbolines 18ac, 18bc, 18da and 18fa against various human cancer cell lines (FIG. 16).

The test system of data set [3] is A431. As to the kind of experiment: Crystal violet cytotoxicity assay, A431. The note with it: Homo sapiens, A-431, 48 h incubation, triplicate. Type of data set: cell-based. The protocol: as §1, §2
Data set [4] has as its system HeLa. Nature of the data set: Crystal violet cytotoxicity assay, HeLa. The note with it: Homo sapiens, 48 h incubation, triplicate. In kind it is cell-based. The protocol:
as §1, §2

In data set [5] the test system is HEK293. As to the kind of experiment: Crystal violet cytotoxicity assay, HEK293. Type of data set: cell-based. The note with it: Homo sapiens, 48 h incubation, triplicate. The protocol:
as §1, §2

Data set [6] has as its system A549. As to the kind of experiment: Crystal violet cytotoxicity assay, A549. The note with it: Homo sapiens, 48 h incubation, triplicate. In kind it is cell-based. The protocol: as §1, §2
A short description of data set [7]: Stability in polar solvent (HRMS footnote). The note with it: HRMS recording. Type of data set: physicochemical.
For data set [8], the system named is Mycobacterium smegmatis. Nature of the data set: In vitro Mycobacterium strains killing assay, M. smegmatis. In kind it is cell-based.

In turn, `COC(=O)c1cc2c(c(-c3cc4ccccc4n3C)n1)c1ccccc1n2C` yielded a melting point of 210 to 212 °C.

`CCOC(=O)c1cc2c(c(-c3cc4ccccc4n3C)n1)c1ccccc1n2C`: the melting point fell in the range of 175 to 177 °C.

On to `COC(=O)c1cc2c(c(-c3cc4ccccc4n3Cc3ccccc3)n1)c1ccccc1n2Cc1ccccc1`, for which the melting point was in the range of 168 to 170 °C.

`COC(=O)c1cc2c(c(-c3cc4cc(OC)ccc4n3C)n1)c1cc(OC)ccc1n2C` had a melting point of 160 to 162 °C.

The compound `COC(=O)c1cc2occc2c(-c2ccco2)n1` gave a melting point of 95 to 97 °C.

In turn, `CC(C)(C)OC(=O)c1cc2occc2c(-c2ccco2)n1` had a melting point of 78 to 80 °C.

`COC(=O)c1cc2oc3ccccc3c2c(-c2cc3ccccc3o2)n1` displayed a melting point of 163 to 165 °C.

Compound `CCOC(=O)c1cc2oc3ccccc3c2c(-c2cc3ccccc3o2)n1` showed a melting point of 141 to 143 °C.

The compound `CC(C)(C)OC(=O)c1cc2oc3ccccc3c2c(-c2cc3ccccc3o2)n1` yielded a melting point of 100 to 102 °C.

Compound `COC(=O)c1cc2c(ccn2Cc2ccccc2)c(-c2cccn2Cc2ccccc2)n1` gave a melting point of 134 to 136 °C.

`COC(=O)c1cc2c(ccn2S(=O)(=O)c2ccc(C)cc2)c(-c2cccn2S(=O)(=O)c2ccc(C)cc2)n1` showed a melting point of 120 to 122 °C.

The compound `COC(=O)c1cc2c(ccn2S(=O)(=O)c2ccccc2)c(-c2cccn2S(=O)(=O)c2ccccc2)n1` yielded a melting point of 104 to 106 °C.

The compound `Cn1c(-c2nc(C(=O)OC(C)(C)C)cc3c2c2ccccc2n3C)cc2ccccc21` [18ac, Tert-butyl 5-methyl-1-(1-methyl-1H-indol-2-yl)-5H-pyrido[4,3-b]indole-3-carboxylate] had a melting point of 200 to 202 °C. Further, the cellular uptake result in data set [1] (100 nM concentration) is listed as “nominal uptake”. In addition, the cellular uptake result in data set [1] (10 μM concentration) is given as “Decent cytosolic uptake”. Besides, the half-maximal inhibitory concentration (IC50) in data set [2] came to 5.59 µM. The IC50 in data set [3] amounted to 4.89 µM. Moreover, the half-maximal inhibitory concentration (IC50) in data set [4] was determined as 4.89 µM. Further, in data set [5], the IC50 turned out to be 2.29 µM. Moreover, the IC50 in data set [6] stood at 4.62 µM.

`CC(C)(C)OC(=O)c1cc2c(c(-c3cc4ccccc4n3Cc3ccccc3)n1)c1ccccc1n2Cc1ccccc1` [18bc, Tert-butyl 5-benzyl-1-(1-benzyl-1H-indol-2-yl)-5H-pyrido[4,3-b]indole-3-carboxylate] gave a melting point of 148 to 150 °C. Also, the IC50 in data set [2] is 7.07 µM. For the same compound, in data set [3], the IC50 turned out to be 9.18 µM. For the same compound, the IC50 in [4] was 8.15 µM. Also, the IC50 in data set [5] was 7.14 µM. The IC50 in [6] is 5.47 µM.

Take `COC(=O)c1cc2c(c(-c3cc4ccccc4n3Cc3ccc(OC)cc3)n1)c1ccccc1n2Cc1ccc(OC)cc1` [18da, Methyl 5-(4-methoxybenzyl)-1-(1-(4-methoxybenzyl)-1H-indol-2-yl)-5H-pyrido[4,3-b]indole-3-carboxylate]: the melting point is 106 to 108 °C. Further, in [2], the IC50 amounted to 2.99 µM. For the same compound, the IC50 in [3] was determined as 4.47 µM. Besides, in [4], the IC50 came to 1.3 µM. Besides, in data set [5], the half-inhibitory concentration (IC50) amounted to 6.73 µM. In addition, in data set [6], the half-maximal inhibitory concentration (IC50) came out at 5.17 µM.

Take `COC(=O)C1=Cc2c(c3ccccc3n2S(=O)(=O)c2ccc(C)cc2)C(c2cc3ccccc3n2S(=O)(=O)c2ccc(C)cc2)N1` (stereo not shown) [18fa, Methyl 5-tosyl-1-(1-tosyl-1H-indol-2-yl)-2,5-dihydro-1H-pyrido[4,3-b]indole-3-carboxylate]: the melting point fell in the range of 205 to 207 °C. Further, the IC50 in data set [2] was 3.71 µM. The IC50 in data set [3] was determined as 3.58 µM. Moreover, in [4], the IC50 amounted to 1.07 µM. In addition, the IC50 in data set [5] came to 4.98 µM. Also, the IC50 in data set [6] is 4.98 µM.

`NC(=O)c1cc2c(ccn2Cc2ccccc2)c(-c2cccn2Cc2ccccc2)n1` [compound 11, 1-Benzyl-4-(1-benzyl-1H-pyrrol-2-yl)-1H-pyrrolo[3,2-c]pyridine-6-carboxamide]: in [7], the “stability in polar solvent” value is “unstable in polar solvent”.

Consider `Cc1ccc(-c2nc(COCc3cn(CCN4C(=O)C(=O)c5ccccc54)nn3)cc3oc(C)cc23)o1` [compound 26, 1-(2-(4-(((2-Methyl-4-(5-methylfuran-2-yl)furo[3,2-c]pyridin-6-yl)methoxy)methyl)-1H-1,2,3-triazol-1-yl)ethyl)indoline-2,3-dione], for which the “concentration range in which active (antituberculosis activity)” value in [8] is 70 to 100 µM and 50 to 100 µM.
